The assay relates to anti-sirolimus antibody. Kind of assay: Sirolimus ACMIA immunoassay: metabolite cross-reactivity in whole blood. The assay is classed as binding. The source says: Testing was done using the DIMENSION® RxL analyzer, available from Dade Behring Inc., Newark Del. The instrument was employed using ACMIA immunoassay technology. The ACMIA assay method is disclosed in U.S. Pat. Nos. 7,186,518, 5,147,529, 5,128,103, 5,158,871, 4,661,408, 5,151,348, 5,302,532, 5,422,284, 5,447,870, 5,434,051, the disclosures of which are incorporated herein in their entirety). In the embodiment of the ACMIA method used herein and discussed in more detail below, competition between sirolimus analog on chrome particles and sirolimus (SIRO) in patient samples for antibody for sirolimus conjugated to an enzyme (conjugate) was utilized to determine the amount of sirolimus in the patient samples. Conjugate that binds to the sirolimus analog on chrome particles was removed by magnetic separation. The enzymatic activity from conjugate remaining in the supernatant is measured and is directly proportional to the amount of sirolimus in the patient sample. In the ACMIA assay format employed, the enzymatic activity observed when testing a sample containing no sirolimus was indicative of the amount of enzymatic activity that was not bound to active antibody (i.e., cannot bind sirolimus on chrome particles). The enzymatic activity observed when no chrome particle is present is indicative of the total amount of enzymatic activity in the conjugate. These values can be used to estimate the percent of enzymatic activity bound to active antibody.
Monoclonal anti-sirolimus antibody (Wyeth Pharmaceuticals, Cambridge Mass.) was conjugated to β-galactosidase using a standard heterobifunctional SMCC (succinimidyl trans-4-(N-maleimidylmethyl)cyclohexane-1-carboxylate) linker according to known techniques. The antibody conjugate solution contained approximately 7.5 μg/mL anti-sirolimus antibody-β-galactosidase conjugate, 30 mg/mL protease free bovine serum albumin, 0.126 mg/mL MgCl2, 0.03 mL/mL of Ethylene glycol, 35.14 mg/mL PIPES 1.5 sodium salt, 50 mg/mL NaCl and beta-gal mutein (inactivated beta-galactosidase), pH 6.5.
Sirolimus chrome particles (immunoassay solid phase) were prepared by conjugating sirolimus-C26- or -C32-CMO conjugate to DA10-Dexal-Chromium Dioxide particles using N-hydroxysuccinimide (NHS) ester and 1-ethyl-3-(3-dimethylaminopropyl)carbodiimide (EDAC) chemistry. See, for example, U.S. Pat. No. 6,231,982, the relevant disclosure of which is incorporated herein by reference. The sirolimus chrome particles are then made into sirolimus chrome particle tablets. Each sirolimus tablet contains approximately 2 mg sirolimus chrome particle slurry, 30.4 mg trehalose dihydrate and 3.6 mg CARBOWAX® 100 μm.
The principle and operation of the ACMIA assay for sirolimus were as follows: pretreatment reagent without FKE or with FKE containing organic solvent as the selective solubility agent was added to a reaction vessel on the DIMENSION® RxL analyzer. Next, 18 μL of whole blood containing sirolimus or its metabolites was added. The whole blood was sampled from a standard cup by first mixing the blood with the ultrasonic sample probe. The mixing of whole blood sample with the pretreatment solution ensured the hemolysis of the whole blood and the displacement of the protein bound sirolimus molecules from their binding sites when the tacrolimus carbamate molecules were present. Anti-sirolimus antibody-β-galactosidase conjugate (50 μL) was added next and was allowed to react with sirolimus in the sample. The chrome particles with immobilized sirolimus-CMO-DA10-Dexal were added (50 μL) and were allowed to bind the un-bound conjugate. […] The sirolimus-bound conjugate was detected by transferring the supernatant from the reaction vessel to a photometric cuvette and measuring the enzymatic rate of the conjugate in the presence of chlorophenol red-β-D-galactopyranoside (CPRG). The rate was measured bichromatically at 577 and 700 nm. […]

Setting [1] is: PT with 15 μg/mL FKE & 15% DMSO.

In the case of 11-hydroxy sirolimus, the sirolimus metabolite cross-reactivity is recorded as 35% under setting [1]; 78% (PT with 15 μg/mL FKE, no DMSO); 315% (PT with Neither FKE Nor DMSO).
Regarding “11-hydroxy sirolimus [11-hydroxy sirolimus (isomer of the above)]”, the sirolimus metabolite cross-reactivity reads like this: under setting [1], 9%; (PT with 15 μg/mL FKE, no DMSO) 34%; (PT with Neither FKE Nor DMSO) 114%.
On to “27,39-O-didesmethyl (or 32,41-O-didesmethyl) sirolimus [27,39 Didesmethyl sirolimus]”, for which the “% Cross-Reactivity” value was 180% (Control: no organic solvent in pretreatment reagent, recovery as percent of parent sirolimus); 100% (DMSO 10% in pretreatment reagent, 2.3% in reaction mixture, 15 μg/mL FK506 ester); 88% (DMSO 15% in pretreatment reagent, 3.4% in reaction mixture, 15 μg/mL FK506 ester); 92% (Methoxypropanol 10% in pretreatment reagent, 2.3% in reaction mixture, 15 μg/mL FK506 ester). In addition, the sirolimus metabolite cross-reactivity stood at 88% under setting [1]; 165% (PT with 15 μg/mL FKE, no DMSO); 569% (PT with Neither FKE Nor DMSO).
Consider 32-O-desmethyl sirolimus, for which the sirolimus metabolite cross-reactivity is on record as −3% under setting [1]; 8% (PT with 15 μg/mL FKE, no DMSO); 34% (PT with Neither FKE Nor DMSO).
As for 41-O-demethyl sirolimus, the sirolimus metabolite cross-reactivity is 40% under setting [1]; 39% (PT with 15 μg/mL FKE, no DMSO); 48% (PT with Neither FKE Nor DMSO).
For `CO[C@@H]1C[C@H](C[C@@H](C)[C@@H]2CC(=O)[C@H](C)/C=C(\C)[C@@H](O)[C@@H](OC)C(=O)[C@H](C)C[C@H](C)/C=C/C=C/C=C(\C)[C@@H](O)C[C@@H]3CC[C@@H](C)[C@@](O)(O3)C(=O)C(=O)N3CCCC[C@H]3C(=O)O2)CC[C@H]1O` [7-O-demethyl sirolimus] the same measures were −3%, 7% and 6%.
Take (N-oxide)-hydroxy sirolimus: the sirolimus metabolite cross-reactivity by setting is: under setting [1], 13%; (PT with 15 μg/mL FKE, no DMSO) 49%; (PT with Neither FKE Nor DMSO) 152%.

For the origin of these results see patent publication US8071317B2, “Methods for detection of hydrophobic drugs” (Siemens Healthcare Diagnostics Inc., priority 2007, dated 2011).
